Values quoted from earlier work as cited in US9427470B2, “Hyaluronic acid stabilizer” (priority 2012, dated 2016).

Target: CD44 (Homo sapiens, UniProt P16070)
Settings: Aruffo, et al., 1990

CD44, sequence (P16070 21-742, species assumed): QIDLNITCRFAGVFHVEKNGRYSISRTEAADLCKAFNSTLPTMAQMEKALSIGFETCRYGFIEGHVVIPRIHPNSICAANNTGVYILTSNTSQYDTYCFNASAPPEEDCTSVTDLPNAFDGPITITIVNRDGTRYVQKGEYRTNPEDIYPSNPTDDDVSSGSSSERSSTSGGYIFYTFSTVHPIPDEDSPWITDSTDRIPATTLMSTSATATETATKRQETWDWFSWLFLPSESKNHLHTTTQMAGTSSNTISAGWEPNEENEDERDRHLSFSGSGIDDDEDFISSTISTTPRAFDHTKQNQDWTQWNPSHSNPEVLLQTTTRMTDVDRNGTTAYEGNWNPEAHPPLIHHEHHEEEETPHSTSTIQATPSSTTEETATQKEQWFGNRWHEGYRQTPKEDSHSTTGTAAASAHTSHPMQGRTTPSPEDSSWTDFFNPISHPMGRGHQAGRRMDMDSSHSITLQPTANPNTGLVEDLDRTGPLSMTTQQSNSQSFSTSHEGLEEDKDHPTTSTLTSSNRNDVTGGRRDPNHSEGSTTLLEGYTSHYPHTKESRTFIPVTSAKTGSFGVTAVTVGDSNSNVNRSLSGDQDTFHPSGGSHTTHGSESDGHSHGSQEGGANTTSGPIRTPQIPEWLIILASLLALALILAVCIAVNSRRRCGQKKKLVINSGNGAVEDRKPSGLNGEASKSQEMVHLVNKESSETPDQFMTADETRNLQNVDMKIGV

strength of bond to CD44 relative to chondroitin sulfate: about 100 times
Substance: Hyaluronic acid [HA]
